This assay concerns 997726-040-R-J2-PDC tumor spheroids, viability. The assay can be described thus: Anticancer human tumor 997726-040-R-J2-PDC patient-derived squamous cell lung carcinoma cell line growth inhibition [PI3K]. To be noted: spheroids with HUVEC and MSC; for viability, T/C: stronger effect = lower value. The source says:
Combinatorial screen of targeted agents with the PI3K inhibitors inavolisib, alpelisib, duvelisib, and copanlisib in multi-cell type tumor spheroids
A high-throughput screen of multi-cell type tumor spheroids was designed to identify active combinations of targeted small molecules and PI3K pathway inhibitors. Complex spheroids include a stromal component modeled by human endothelial cells (HUVEC) and fibroblasts modeled by human mesenchymal stem cells (MSCs). The concentration ranges selected for each drug and investigational agent were based upon clinically achievable concentrations if the clinical Cmax of the agent was known.
Compounds. The drugs and investigational agents: inavolisib (NSC800729), alpelisib (NSC765974), duvelisib (NSC772469), copanlisib (NSC816437), ipatasertib (NSC767898), afuresertib (NSC778305), talazoparib (NSC767125), sapanisertib (NSC764658), selumetinib (NSC741078), tovorafenib (DAY101, NSC766906), vemurafenib (NSC761431), ravoxertinib (NSC781343), sotorasib (NSC818433), MRTX1133 (NSC 836407), abemaciclib (NSC 768073), palbociclib (NSC758247), venetoclax (NSC 766270), SY5609 (NSC837396), enzalutamide (NSC755605), and darolutamide (NSC825331), were obtained from the National Cancer Institute (NCI) Developmental Therapeutics Program Chemical Repository. The FDA-approved anticancer drug set is available from the NCI Developmental Therapeutics Program. […] The stock solutions were prepared in dimethyl sulfoxide (DMSO, Sigma-Aldrich, St. Louis, MO, cat. D2650) at 800-fold the tested concentration and stored at -70 degrees C prior to their use. All drugs and investigational agents were tested over a range starting from a high concentration at or near the clinical Cmax and decreasing in half-log increments. If the clinical Cmax for an agent had not been determined, the highest concentration tested was 10 microM.
Cell Culture. All cells were maintained in an incubator at 37 degrees C and 5% CO2 with 95% humidity. The PDC lines were cultured according to standard operating procedures established by the NCI PDMR (https://pdmr.cancer.gov/sops/default.htm). All PDCs were thawed and cultured in Matrigel-coated flasks prepared with a working solution of 1X Ham's F-12 nutrient mix, without supplementation (Invitrogen, Waltham, MA, cat. 11765054), 100 U/mL penicillin-streptomycin (Invitrogen, cat. 15140122), and 2.5% Matrigel (Corning Inc., Corning, NY, cat. 354248) for the first three passages. The 354836-022-R-J1-PDC, 475296-252-R-J1-PDC, and 997726-040-R-J2-PDC lines were cultured in 6A media, which includes advanced DMEM/F-12 (Thermo Fisher Scientific, cat. 12634028), 10 mM HEPES (Thermo Fisher Scientific, cat. 15630080), 1X GlutaMAX supplement (Thermo Fisher Scientific, cat. 35050061), 0.1 mg/mL primocin (InvivoGen, San Diego, CA, cat. ant-pm-2), 10% defined fetal bovine serum, heat inactivated (HyClone Laboratories Inc., Logan, UT, cat. SH30070.03HI), 50% L-WRN conditioned media (ATCC, cat. CRL-3276), 1.25 mM N-Acetyl-L-cysteine (Sigma-Aldrich, cat. A9165), 10 mM nicotinamide (Sigma-Aldrich, cat. N0636), 1X B-27 supplement (Thermo Fisher Scientific, cat. 17504044), 1X N-2 supplement (Thermo Fisher Scientific, cat. 17502048), and 10 microM Y-27632 dihydrochloride (Tocris Bioscience, Bristol, United Kingdom, cat. 1254). The 624824-186-R-J2-PDC line was cultured in 6C/Colon 1B media, which includes all 6A media components plus 50 ng/mL human EGF recombinant protein (Thermo Fisher Scientific, cat. PHG0311). […]

pIC50: −log10 of the molar value.

In general, pIC50 refers to −log10 of the IC50, conventionally taken in molar units. The viability, T/C is the ratio of treated to control.
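Also: spheroids exposed to compounds for seven days before readout.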

As for `CCN1CCN(Cc2ccc(Nc3ncc(F)c(-c4cc(F)c5nc(C)n(C(C)C)c5c4)n3)nc2)CC1` + CC(Nc1ccc2c(c1)OCCn1cc(N3C(=O)OCC3C(F)F)nc1-2)C(N)=O, the pIC50 reads like this: (curve of first compound, second compound 0.00316 µM) below 6.00; (curve of first compound, second compound 0.01 µM) 6.08; (curve of first compound, second compound 0.0316 µM) 7.98; (curve of first compound, second compound 0.1 µM) above 8.50; (curve of first compound, second compound 0.316 µM) above 8.50; (curve of first compound, second compound 1 µM) above 8.50. Moreover, the viability, T/C by setting is: (second compound 0.00316 µM, first compound 0.00316 µM) 79%; (second compound 0.00316 µM, first compound 0.01 µM) 79.8%; (second compound 0.00316 µM, first compound 0.0316 µM) 72.7%; (second compound 0.00316 µM, first compound 0.1 µM) 58.5%; (second compound 0.00316 µM, first compound 0.316 µM) 59.4%; (second compound 0.00316 µM, first compound 1 µM) 62.3%. Besides, the viability, T/C was 79.8% (second compound 0.01 µM, first compound 0.00316 µM); 77.3% (second compound 0.01 µM, first compound 0.01 µM); 60.7% (second compound 0.01 µM, first compound 0.0316 µM); 62.6% (second compound 0.01 µM, first compound 0.1 µM); 55.4% (second compound 0.01 µM, first compound 0.316 µM); 48.1% (second compound 0.01 µM, first compound 1 µM). Moreover, the viability, T/C is, setting by setting: (second compound 0.0316 µM, first compound 0.00316 µM) 55%; (second compound 0.0316 µM, first compound 0.01 µM) 54.6%; (second compound 0.0316 µM, first compound 0.0316 µM) 45.9%; (second compound 0.0316 µM, first compound 0.1 µM) 37.7%; (second compound 0.0316 µM, first compound 0.316 µM) 40.4%; (second compound 0.0316 µM, first compound 1 µM) 43.4%. Besides, the viability, T/C (second compound 0.1 µM, first compound 0.00316 µM) was 44.7%; the viability, T/C (second compound 0.1 µM, first compound 0.01 µM) is 38.1%; the viability, T/C (second compound 0.1 µM, first compound 0.0316 µM) was 34.6%; the viability, T/C (second compound 0.1 µM, first compound 0.1 µM) is 30.5%; the viability, T/C (second compound 0.1 µM, first compound 0.316 µM) is 32.5%; the viability, T/C (second compound 0.1 µM, first compound 1 µM) was 32.3%. The viability, T/C by setting is: (second compound 0.316 µM, first compound 0.00316 µM) 33.4%; (second compound 0.316 µM, first compound 0.01 µM) 29.6%; (second compound 0.316 µM, first compound 0.0316 µM) 26.4%; (second compound 0.316 µM, first compound 0.1 µM) 22%; (second compound 0.316 µM, first compound 0.316 µM) 23.9%; (second compound 0.316 µM, first compound 1 µM) 23.1%. For the same compound, the viability, T/C is 29.3% (second compound 1 µM, first compound 0.00316 µM); 26.8% (second compound 1 µM, first compound 0.01 µM); 22.8% (second compound 1 µM, first compound 0.0316 µM); 18.2% (second compound 1 µM, first compound 0.1 µM); 20.4% (second compound 1 µM, first compound 0.316 µM); 21.1% (second compound 1 µM, first compound 1 µM).
Take `CC(Cn1ccc(-c2ccc(C#N)c(Cl)c2)n1)NC(=O)c1cc(C(C)O)[nH]n1` (configuration not stated): the viability, T/C (compound 0.0316 µM) was 101% [middle of 4 runs]; the viability, T/C (compound 0.1 µM) was 103% [middle of 4 runs]; the viability, T/C (compound 0.316 µM) is 105% [middle of 4 runs]; the viability, T/C (compound 1 µM) was 100% [middle of 4 runs]; the viability, T/C (compound 3.16 µM) was 107% [middle of 4 runs]; the viability, T/C (compound 10 µM) is 96.3% [middle of 4 runs]. Moreover, the pIC50 (curve of compound) is below 5.00.
Turning to `Cn1cnc2c(F)c(Nc3ccc(Br)cc3Cl)c(C(=O)NOCCO)cc21`, the viability, T/C (compound 0.00949 µM) is 77.2% [middle of 4 runs]; the viability, T/C (compound 0.03 µM) is 70.8% [middle of 4 runs]; the viability, T/C (compound 0.0949 µM) was 58.2% [middle of 4 runs]; the viability, T/C (compound 0.3 µM) is 48.6% [middle of 4 runs]; the viability, T/C (compound 0.949 µM) is 48.3% [middle of 4 runs]; the viability, T/C (compound 3 µM) was 40.8% [middle of 4 runs].
In the case of `CC(=O)c1c(C)c2cnc(Nc3ccc(N4CCNCC4)cn3)nc2n(C2CCCC2)c1=O`, the viability, T/C (compound 0.000316 µM) is 94.7% [middle of 4 runs]; the viability, T/C (compound 0.001 µM) was 92.8% [middle of 4 runs]; the viability, T/C (compound 0.00316 µM) was 99.1% [middle of 4 runs]; the viability, T/C (compound 0.01 µM) is 91.3% [middle of 4 runs]; the viability, T/C (compound 0.0316 µM) is 82.2% [middle of 4 runs]; the viability, T/C (compound 0.1 µM) is 62.8% [middle of 4 runs]. Moreover, where the note is “curve of compound”, the pIC50 is below 7.00.

The record behind these values is PubChem BioAssay AID1963964 (Molecular Pharmacology Branch, DTP, NCI, 2024).
